*1 amine or outer side, *2 acyl side, *3 side chain or, on linkers, in order; H or OH if unused. Where a SMILES comes first, the peptide text is derived from it. [ ]: non-standard residue; d: D form. X1 = O=C([C@@H]1CCCN1CP(=O)(O)C(Cc1ccccc1)N[*:1])[*:2]

The target in the test is T1, Synthetic HIV-1 proteinase (Human immunodeficiency virus type 1 group M subtype B, UniProt P03369).
T1 construct: Synthetic HIV-1 proteinase; made in house; host or cells: chemical synthesis (no expression host); gift of Dr. Stephen Kent, The Scripps Research Institute
In words: HPLC assay of HIV-1 PR inhibition. Type of test: biochemical. The conditions noted are these: HIV substrate IV, pH 6.2, 25° C. How it is done: Typical reactions were carried out at room temperature (25° C.) in 150 μl total volumes of 100 mM MES buffer, pH 6.2, containing 1 mM ethylenediaminetetra-acetic acid (EDTA) and 2 mM dithiothreitol (DTT) plus 0.1 percent (v/v) Triton X-100.
Synthetic HIV-1 proteinase [0.5 μg, obtained from Dr. Stephen Kent of The Scripps Research Institute; see Cell, 54:363-368 (July 29, 1988)] was first incubated in buffer with (or without) various concentrations of "inhibitor(s)" for 30 minutes at 25° C. The proteinase reaction was then initiated by the addition of HIV substrate IV (Bachem Bioscience Inc.) at fixed concentrations. HIV Substrate IV has the sequence
Lys-Ala-Arg-Val-Nle-p-NO2 Phe-Glu-Ala-Nle-NH2 (SEQ ID NO: 32).
At three appropriate times (normally 15, 30 and 45 minutes) the hydrolysis was stopped by adding a 40 μl aliquot from the reaction to 40 μl of a prepared quench solution. The quench solution was 1:4 acetonitrile:water (3 percent trifluoroacetic acid; TFA) and contained 150 μM m-toluic acid which served as an HPLC standard. […] Reaction progress was monitored by following the increasing absorbance (peak height) of the substrate IV cleavage product detected at […].

For `CC[C@H](C)[C@H](NC(=O)[C@@H]1CCCN1CP(=O)(O)C(Cc1ccccc1)NC(=O)[C@H](CC(N)=O)NC(=O)[C@H](CC(C)C)NC(=O)[C@H](CO)NC(C)=O)C(=O)N[C@H](C(=O)OC)C(C)C` (stereo partly drawn) [Compound 6, CH3 C(O)-Ser-Leu-Asn-Phe.psi.[PO2^- CH2 NH^+ ]Pro-Ile-Val-OCH3] (Ac-SLN[X1]IV-OMe), the Ki is roughly 600 µM (one stereoisomer of Compound 6) and roughly 0.01 µM (the other (more active) isomer of Compound 6).

The Ki is a measure of affinity in units of concentration, obtained from inhibition or displacement.
